Experimental data reported in patent US8309556B2, “Use of compounds derived from pyrimidinetrione as acetyl cholinesterase inhibitors, compositions containing said derivatives, and the uses thereof” (priority 2005, dated 2012).
pIC50: −log10 of the molar value. Like-named read-outs stand apart in the source and are kept apart here.

Assays:
[1] = tested on: larvae of mosquitoes Culex pipiens sensitive to propoxur; experiment: Insecticidal activity: larval mortality, propoxur-sensitive larvae; assay type: in vivo; conditions: stage-4 larvae, mortality after 24 hours, log-Probit, read-out: LD50, Sensitive larvae
Experimental: (§1) The insecticidal activity of the compounds according to the invention denoted in table IV below is tested on larvae of mosquitoes Culex pipiens sensitive or resistant to the action of propoxur.
(§2) The larvae resistant or sensitive to propoxur are incubated in 24-well plates, at the rate of 15 stage-4 larvae per well, in 1 ml of tap water comprising different concentrations of compounds ranging from 0.31 to 50 μg/ml.
(§3) Larval mortality is measured after incubating for 24 hours. […] Cahiers ORSTOM, série Entomologie médicale et Parasitologie, 23(2), 117-121; Raymond, M., Prato, G. and Ratsira, D. (1993). PROBIT, CNRS-UMII, Licence L93019. Avenix, 34680 St. Georges d'Orques, France.), the homogeneity of the dose/response being tested. The effectiveness of the different compounds with regard to the resistant larvae, relative to the sensitive larvae, is estimated by the sensitive/resistant ratio.

[2] = target: T1, AChE1 activity of extracts of Culex pipiens larvae sensitive to propoxur (normal AChE) (Culex pipiens, UniProt Q86GC8); experiment: Inhibition of AChE1 activity in extracts of propoxur-sensitive mosquito larvae; assay type: biochemical
T1 construct: from tissue; host or cells: whole larvae of propoxur-sensitive Culex pipiens, Triton X100 homogenate supernatant
Experimental: (§4) The inhibitory properties of the compounds of the preceding table I are tested with regard to the AChE activity by either using a normal or G119S-mutated recombinant AChE or using extracts of larvae of mosquitoes which are sensitive (carrying normal AChE) or resistant (carrying G119S-mutated AChE) to organophosphorus compounds and carbamates.
(§5) The AChE activity is measured using the method described by Bourguet et al., Pest Biochem. Physiol., 1996, 55, 122-128, and which refers to the spectroscopic method described by Ellman G. L. et al. (Biochem. Pharmacol., 1961, 7, 88-95) using acetylthiocholine as substrate.
(§6) Larvae of Culex pipiens mosquitoes which are sensitive or resistant to propoxur are milled in 400 μl of 0.25M phosphate buffer comprising 1% Triton X100. The homogenates are centrifuged at 10 000 rpm for 3 minutes.
(§7) The effectiveness of the various compounds with regard to the resistant larvae, relative to the sensitive larvae, is estimated by the sensitive/resistant ratio.

[3] = tested on: AChE1 activity of extracts of Culex pipiens larvae resistant to propoxur (G119S-mutated AChE); experiment: biochemical; conditions: IC50 on larval extracts, sensitive relative to resistant
Experimental: as §4, §5, §6, §7

[4] = target: T2, AChE1 activity of extracts of Culex pipiens larvae resistant to propoxur (G119S-mutated AChE) (Culex pipiens, UniProt Q86GC8, G247S); experiment: biochemical
T2 construct: from tissue; host or cells: whole larvae of propoxur-resistant Culex pipiens, Triton X100 homogenate supernatant
Experimental: as §4, §5, §6, §7

[5] = tested on: larvae of mosquitoes Culex pipiens resistant to propoxur; experiment: Insecticidal activity: larval mortality, propoxur-resistant larvae; assay type: in vivo; conditions: for LC50: Culex pipiens, stage-4 larvae, mortality after 24 hours, log-Probit, read-out: LD50, Resistant larvae; for Sensitive/resistant ratio: LD50 larval mortality, sensitive relative to resistant
Experimental: as §1, §2, §3

[6] = target: T3, normal recombinant Culex pipiens AChE1 (Culex pipiens, UniProt Q86GC8); experiment: Inhibition of normal recombinant AChE1 (lysates of transfected Drosophile S2 cells, Ellman method); assay type: biochemical
T3 construct: made in house; host or cells: Drosophila S2 cells (crude lysate supernatant)
Experimental: as §4, §5
(§8) The inhibitory properties of the compounds according to the invention with regard to the activity of a G119S-mutated or normal recombinant Culex pipiens AChE1 are tested according to protocol described by Weill et al., Nature, 2003, 423, 136-137.
(§9) Each compound according to the invention is tested at different concentrations on lysates of Drosophile S2 cells transfected with an empty expression vector or an expression vector expressing normal or mutated AChE1. After expression, the cells are centrifuged for 15 minutes at 14 000 rpm and are subsequently lysed in a 0.25 M phosphate buffer comprising 1% Triton X100.
(§10) 100 μl of supernatant originating from the centrifuging of the cell lysates at 10 000 rpm for 3 minutes are incubated for 15 minutes with 10 μl of each compound according to the invention at various concentrations.
(§11) The effectiveness of the various compounds with regard to the mutated AChE activity, relative to that of the normal AChE, is estimated by the sensitive/insensitive ratio.

[7] = tested on: G119S-mutated recombinant Culex pipiens AChE1; experiment: biochemical; conditions: IC50 normal AChE1 relative to mutated AChE1, recombinant
Experimental: as §4, §5, §8, §9, §10, §11

[8] = target: T4, G119S-mutated recombinant Culex pipiens AChE1 (Culex pipiens, UniProt Q86GC8, G247S); experiment: biochemical
T4 construct: made in house; host or cells: Drosophila S2 cells (crude lysate supernatant)
Experimental: as §4, §5, §8, §9, §10, §11

[9] = extracts of propoxur-sensitive larvae, 15 minutes incubation, read-out: IC50, Sensitive larvae

SMILES | LC50 [1] [µM] | pIC50 [2, 9] | Sensitive/resistant ratio [3] | pIC50 [4] | LC50 [5] [µM] | Sensitive/resistant ratio [5] | pIC50 [6] | Sensitive/insensitive ratio [7] | pIC50 [8] | pIC50 [2]
Cc1ccc(C=C2C(=O)NC(=O)N(c3ccc(Cl)cc3)C2=O)o1 [(6), 1-(4-chlorophenyl)-5-[(5-methyl-2-furyl)methylene]-2,4,6(1H,3H,5H)-pyrimidinetrione] | 762 | 3.48 | 12.0 | 4.57 | 192 | 4.0 | 4.15 | 1.63 | 4.37 | –
C=CCN1C(=O)C(=Cc2ccc(C)o2)C(=O)NC1=S [(8), 1-allyl-5-[(5-methyl-2-furyl)methylene]-2-thioxodihydro-4,6(1H,5H)-pyrimidinetrione] | 223 | 4.04 | 1.8 | 4.29 | 123 | 1.8 | 4.21 | 2.08 | 4.54 | –
CNC(=O)Oc1ccccc1OC(C)C [Propoxur, propoxur, reference compound] | 1.7 | – | 0.00015 | 1.50 | 2700 | 0.00063 | 5.05 | 0.0014 | 2.20 | 5.31
